From ChEMBL document CHEMBL1828590 (J Med Chem, 2011)

Key:
HCT-116 [1] = test: Antitumor activity against human HCT116 cells xenografted in nude BALB/c mouse assessed as tumor growth inhibition at 50 mg/kg, po qd for 21 days measured on day 18; assay type: functional; settings: read-out: TGI
HCT-116 [2] = test: Antiproliferative activity against human HCT116 cells after 96 hrs by celltiter 96 assay; assay type: functional, cell-based; settings: HCT-116, 96 h
Mus musculus [3] = test: Toxicity in nude BALB/c mouse xenografted with human HCT116 cells assessed as body weight loss at 50 mg/kg, po QD for 21 days measured on day 12; assay type: organism-based, HCT-116; parameters: dose 50 mg/kg, route oral; settings: in vivo, 504 h
[4] = Oral bioavailability in nude BALB/c mouse at 50 mg/kg; assay type: ADME, organism-based; settings: in vivo
PC-3 = test: Antiproliferative activity against human PC3 cells after 96 hrs by celltiter 96 assay; assay type: functional, cell-based; settings: PC-3, 96 h
HCT-116 [5] = test: Antitumor activity against human HCT116 cells xenografted in nude BALB/c mouse assessed as tumor growth inhibition at 50 mg/kg, po qd for 21 days measured on day 15; assay type: functional; settings: read-out: TGI
COLO 205 = test: Antiproliferative activity against human COLO205 cells after 96 hrs by celltiter 96 assay; assay type: functional, cell-based; settings: COLO 205, 96 h
A2780 = test: Antiproliferative activity against human A2780 cells after 96 hrs by celltiter 96 assay; assay type: functional, cell-based; settings: A2780, 96 h
Mus musculus [6] = test: Toxicity in nude BALB/c mouse xenografted with human HCT116 cells assessed as mouse survival at 50 mg/kg, po QD for 21 days measured on day 22; assay type: organism-based, HCT-116; parameters: dose 50 mg/kg, route oral; settings: in vivo, 504 h

Cc1[nH]c2ccccc2c1CCNCc1ccc(/C=C/C(=O)NO)cc1 [PANOBINOSTAT]
inhibition in vivo at 50 mg/kg (HCT-116 [1]): 61% | IC50 (HCT-116 [2]): 0.048 µM | Activity (Mus musculus [3]): 17.3% | bioavailability [4]: 4.6% | IC50 (PC-3): 0.024 µM | inhibition in vivo at 50 mg/kg (HCT-116 [5]): 41% | IC50 (COLO 205): 0.018 µM | IC50 (A2780): 0.035 µM | Activity (Mus musculus [6]): Non-toxic
